{"source": "patent US20220041578A1", "about": "“ISOINDOLINE COMPOUND, AND PREPARATION METHOD, PHARMACEUTICAL COMPOSITION, AND APPLICATION OF ISOINDOLINE COMPOUND” (Shanghai Institute of Meteria Medica, Chinese Academy of …, priority 2018, published 2022)", "format_in_all_cases": "cell-based", "key": {"MM.1S cells": {"system": "MM.1S cells", "test": "Effect of the compound on the proliferation of MM.1S cells (MTS)", "conditions": "Homo sapiens, MM1.S, 168 h, 7 days, read-out: Cell inhibitory activity (IC50)", "how_it_was_run": "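In 1640 medium + 10% FBS, 20,000 cells per well were treated with 5-fold compound dilutions at 0.2% DMSO for 7 days at 37° C., 5% CO2. MTS was read after 3–4 h as OD490−OD690, inhibition was calculated against DMSO and blank wells, and IC50 was fitted; three independent experiments were run.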"}, "Mino cells": {"system": "Mino cells", "test": "Effect of the compound on the proliferation of Mino cells (MTS)", "conditions": "Homo sapiens, 72 h, 3 days, read-out: Inhibitory activity (IC50)", "how_it_was_run": "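Mino cells, 8000/well, treated 3 days at 37 °C/5% CO2 with 5-fold compound dilutions from 10 mM stock (0.2% DMSO final). MTS added for 3-4 h; OD490 minus OD690 read, inhibition relative to DMSO and blank, IC50 fitted. Three repeats, each in triplicate.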"}, "[1]": {"system": "prostate cancer cells DU145", "test": "Proliferation of other tumor cells, DU145 (WST-8)", "conditions": "Homo sapiens, DU-145, 96 h, 4 days, read-out: Inhibitory activity on proliferation, DU145 (IC50)", "method": "(§1) The human triple negative breast cancer cells MDA-MB-468 and MDA-MB-231 used in this experiment were purchased from the Shanghai Cell Bank, in which L-15 medium added with 10% fetal bovine serum (FBS) and 1% double antibody was used. At 37° C., MDA-MB-468 and MDA-MB-231 cells were cultured in an incubator without CO2. Colorectal cancer cells HCT-116 were cultured in McCOY's 5A medium with 1% double antibody and 10% fetal bovine serum (FBS); prostate cancer cells DU145 were cultured in MEM medium with 1% double antibody and 10% fetal bovine serum (FBS); prostate cancer cells PC-3 were cultured in F-12 K medium with 1% double antibody and 10% fetal bovine serum (FBS); grew at 37° C., 5% CO2.\n(§2) In the cell activity test experiment, 90 μL cell suspension with appropriate concentration was added to a 96-well cell culture plate according to the cell growth, each compound to be tested was gradient diluted with the corresponding medium, 10 μL diluted compound was added to 90 μL cells, and then incubated at 37° C. for 4 days. Cell proliferation was analyzed by WST-8, which could be reduced by lactate dehydrogenase in the cells to a yellow formazan. 10 μL of WST-8 reagent (DOJINDO) was added to the cells and reacted for more than 1 hour at 37° C., DMSO-treated cells were used as […]. The absorption value of 490 nm was read by enzyme-labeled plate, and the absorption value of 690 nm was taken as the background value, and OD490-OD690 was taken as the final original data, and the data was processed by GraphPad Prism6 software. The formula for calculating the inhibition rate of the compound was: inhibition rate=(ODDMSO−ODcompound)/(ODDMSO−Oblank)×100%. The compound's proliferation inhibition IC50 was fitted by Graph Pad Prism 5.0. The experiment was repeated three times, and three parallel experiments were used to calculate the average and standard deviation each time. The cell viability test results were shown in Table 4: A means cell viability IC50<1 μM, B means cell viability 1 μM≤IC50≤20 μM, C means cell viability IC50>20 μM, NT means not tested."}, "[2]": {"system": "prostate cancer cells PC-3", "test": "Proliferation of other tumor cells, PC-3 (WST-8)", "conditions": "Homo sapiens, 96 h, PC-3 cells, 4 days, read-out: Inhibitory activity on proliferation, PC-3 (IC50)", "method": "as §1, §2"}, "IFNγ": {"system": "IFNγ", "test": "IFNγ expression change in anti-human CD3 stimulated PBMC (ELISA)", "conditions": "compound 10 nM, anti-human CD3 10 ug/ml, 24 hours", "method": "All operations of this experiment were carried out according to the conventional experimental process of this kind of experiment at present. Peripheral blood from healthy volunteers was collected by routine standard procedure and cultured in 1640 medium (+10% FBS) to obtain PBMC. After recovery, PBMC was centrifuged and resuspended in serum-free medium. After counting, adjusted the density to be 6.25×10^5/ml; then inoculated 160 ul to a 96-well plate, 2 holes each, 1×10^5/well; 20 ul 10× compound and DMSO were added, and incubated for 1 hour in an incubator; then 20 ul 10× anti-human CD3 was added resulting the final concentration of 10 ug/ml and incubated in an incubator for 24 hours. Centrifuged the cell plate at 1500 rpm and aspirated 50 ul supernatant according to the ELISA operation. After operating according to the kit, a microplate reader was used to read at 450 nm. The concentration of compound was 10 nM, and DMSO was added as control group. Materials used in this experiment: 96 well plate (Corning, #3599), ELISA kit (Thermo), LPS (Sigma, USA). It was found from the test results of the following table that the compounds of the examples of the present invention could be used to regulate the expression of IFNγ."}}, "data": [{"smiles": "Nc1cccc2c1CN(C1CCC(=O)NC1=O)C2=O", "note": "(centres unmarked) [Lenalidomide, lenalidomide, reference compound]", "values": [{"measurement": "IC50", "setting": "MM.1S cells", "result": "< 0.15", "unit": "µM"}, {"measurement": "IC50", "setting": "Mino cells", "result": "> 20", "unit": "µM"}, {"measurement": "IC50", "setting": "[1]", "result": "> 20", "unit": "µM"}, {"measurement": "IC50", "setting": "[2]", "result": "> 20", "unit": "µM"}, {"measurement": "Increase multiple of IFNγ expression", "setting": "IFNγ", "result": ">1.5"}]}]}
